We go through 2 compounds from patent US20110015208A1, “PHARMACEUTICAL COMPOSITIONS CONTAINING DOPAMINE RECEPTOR LIGANDS AND METHODS OF TREATMENT USING DOPAMINE RECEPTOR LIGANDS” (priority 2007, published 2011).

For test [1], the system named is chronic mild stress (CMS) model of depression. The test is described as follows: Chronic mild stress (CMS) model of depression, sucrose consumption (Example 3). Type of test: in vivo, rat. The following applies: for sucrose consumption in stressed animals compared to vehicle: 5 weeks; for time until increase in sucrose intake reached statistical significance vs Week 0: stressed animals. The text has this: Similar to the study described in Example 2, additional studies were undertaken to further evaluate the antidepressant effect of cariprazine hydrochloride, administered alone, or in combination with escitalopram oxalate, in a chronic mild stress model of depression
In the chronic mild stress (CMS) model, rats subjected to a variety of mild stressors for a prolonged period of time show a substantial decrease in their responsiveness to rewarding stimuli. This deficit is usually monitored by a decrease in the consumption of a 1% sucrose solution, but can also be seen in other tests, such as place preference conditioning or intracranial self-stimulation. The subsensitivity to reward appears to reflect anhedonia (inability to experience pleasure), which is a core symptom of major depressive disorders. Clinically approved antidepressants have shown activity in this animal model by reversing the effects of CMS on sucrose consumption. See, e.g., Sanchez C, Gruca P, Papp M, Behavioural Pharmacology 14, 465-470, 2003.
Male Wistar rats (Charles River, Germany) were brought into the laboratory two months before the start of the experiment. Except as described below, the animals were singly housed with food and water freely available, and were maintained on a 12-h light/dark and in a constant temperature (22±2° C.) and humidity (50±5%) conditions.
The animals were first trained to consume a 1% sucrose solution; training consisted of nine 1 h baseline tests in which sucrose was presented, in the home cage, following 14 h food and water deprivation. The sucrose intake was measured by weighing pre-weighed bottles containing the sucrose solution, at the end of the test. Subsequently, sucrose consumption was monitored, under similar conditions, at weekly intervals throughout the whole experiment.
On the basis of their sucrose intakes in the final baseline test, the animals were divided into two matched groups. One group of animals was subjected to the chronic mild stress procedure for a period of 7 consecutive weeks. Each week of stress regime consisted of: two periods of food or water deprivation, two periods of 45 degree cage tilt, two periods of intermittent illumination (lights on and off every 2 h), two periods of soiled cage (250 ml water in sawdust bedding), one period of paired housing, two periods of low intensity stroboscopic illumination (150 flashes/min), and three periods of no stress. All stressors were 10-14 h of duration and were applied individually and continuously, day and night. Control animals were housed in separate rooms and had no contact with the stressed animals. They were deprived of food and water for 14 h preceding each sucrose test, but otherwise food and water were freely available in the home cage.

Test [2] deals with extracellular serotonin (5-HT) in the frontal cortex. The test is described as follows: Dual-probe microdialysis, serotonin in frontal cortex of freely-moving rats. Type of test: in vivo, rat. As for the experimental part:
A dual-probe microdialysis study was conducted to determine the effects of oral administration of cariprazine hydrochloride, alone and in combination with escitalopram oxalate (administered subcutaneously), on extracellular concentrations of acetylcholine (ACh), dopamine (DA) and serotonin (5-HT) in the frontal cortex of freely-moving rats.
Experiments were carried out in male Sprague Dawley rats (250-350 g body weight; Charles River, UK). Animals were housed in groups of six on a 12 h/12 h light/dark cycle (lights on at 07.30 h), at an ambient temperature of 21±2° C. and 55±20% humidity. Food and water were available ad libitum. Animals were allowed to acclimatise to these conditions for at least 5 days prior to the study.
Rats were anaesthetised with isoflurane (5% to induce, 2% to maintain) in an O2/N2O (1 litre/min each) mixture delivered via an anaesthetic unit (St Bernard Medical Services, UK). […] Samples were measured from the same side in each rat (e.g. left probe was used to measure ACh and right probe was used to measure DA and 5-HT). […]

Test [3] concerns basal locomotor activity of mice. Put plainly: Open field, basal locomotor activity of mice (Example 4A). It counts as in vivo, mouse.
Where [4] appears, read: escitalopram oxalate 2 mg/kg IP once daily.

Entries after “also recorded” stand apart in the source; their conditions may differ. Where a name gives a salt, the structure may show the parent alone.

`CN(C)C(=O)N[C@H]1CC[C@H](CCN2CCN(c3cccc(Cl)c3Cl)CC2)CC1` [Cariprazine hydrochloride, trans-4-{2-[4-(2,3-dichlorophenyl)-piperazin-1-yl]-ethyl}-N,N-dimethylcarbamoyl-cyclohexylamine hydrochloride]: the “sucrose consumption in stressed animals compared to vehicle” value was “significantly decreased” in test [1] (cariprazine hydrochloride 0.01 mg/kg alone, IP once daily); “gradually increased” in test [1] (cariprazine hydrochloride 0.03 mg/kg alone, IP once daily); “gradually increased” in test [1] (cariprazine hydrochloride 0.065 mg/kg IP once daily). In addition, the “time until increase in sucrose intake reached statistical significance vs Week 0” value in test [1] (cariprazine hydrochloride 0.03 mg/kg alone, IP once daily, hydrochloride) is on record as “after four weeks of treatment; also recorded: three weeks”; in test [1] (cariprazine hydrochloride 0.065 mg/kg IP once daily, hydrochloride), “after the first week of treatment; also recorded: following the first week of administration”. Besides, the “magnitude of action relative to escitalopram oxalate” value in test [1] (cariprazine hydrochloride alone, full recovery at the end of treatment period) is on record as “comparable to that of escitalopram oxalate”. Besides, the “efflux of 5-HT in the frontal cortex” value in test [2] (cariprazine hydrochloride alone 0.03, 0.1 and 0.3 mg/kg po) is given as “no significant effect”.
Take `CN(C)CCC[C@@]1(c2ccc(F)cc2)OCc2cc(C#N)ccc21` [Escitalopram oxalate, 1-[3-(dimethyl-amino)propyl]-1-(p-fluorophenyl)-5-phthalancarbonitrile]: in test [1] (setting [4]), the “sucrose consumption in stressed animals compared to vehicle” value is given as “gradually increased; also recorded: fully reversed” and the “time until increase in sucrose intake reached statistical significance vs Week 0” value is recorded as “after three weeks of treatment”. The “basal 5-HT levels” value in test [2] (escitalopram oxalate 1.0 mg/kg sc) was “no effect”. Also, the “effect on basal activity compared to water-treated mice” value in test [3] (escitalopram oxalate 0.5, 2.0 and 5.0 mg/kg oral) is “Neither valproate nor escitalopram oxalate (0.5, 2.0, and 5.0 mg/kg) had a significant effect”. Moreover, in test [3] (test condition water, 2.0 mg/kg oral, 60 min pretreatment), the “Total Distance Traveled [mean ± SEM]” value was 5939 ± 369 cm/60 min.
